The values that follow come from ChEMBL document CHEMBL3272295, “Drugs derived from cannabinoids. 5. delta6a,10a-Tetrahydrocannabinol and heterocyclic analogs containing aromatic side chains” (J Med Chem, 1976).

One may read the ED50 as the dose at which the effect has come halfway, by size or by number of responders. Usually inhibition in vivo stands for the relative decrease from the control value, in per cent. Usually LD50 stands for the dose expected to kill half of the subjects tested.

Series [1] concerns Rattus norvegicus. The series is described as follows: Antianxiety activity in Long-Evans rat assessed as reduction in motor activity at 10 mg/kg, po after 2 hrs relative to vehicle-treated control. The series is classed as functional. Set-up: scale not given: the % may be the effect or the level left.
In series [2] the test system is Rattus norvegicus. The series is described as follows: Antipsychotic activity in rat assessed as reduction of methamphetamine-induced hyperactivity at 5 mg/kg, po administered prior to methamphetamine challenge relative to vehicle-treated control. Type of series: functional. Set-up: scale not given: the % may be the effect or the level left.
For series [3], the system named is Mus musculus. The series is described as follows: Analgesic activity in po dosed mouse assessed as inhibition of acetic acid-induced writhing administered 30 mins prior to acetic acid challenge measured after 5 mins for 20 mins. Type of series: functional. (In general: Writhing tests count abdominal constrictions after an irritant is injected.)
The subject of series [4] is Rattus norvegicus. The series is described as follows: Antipsychotic activity in rat assessed as reduction of methamphetamine-induced hyperactivity at 20 mg/kg, po administered prior to methamphetamine challenge relative to vehicle-treated control. On the set-up: scale not given: the % may be the effect or the level left. The series is classed as functional.
The subject of series [5] is Mus musculus. The series can be described thus: Antianxiety activity in albino BALB/cJ mouse assessed as reduction in footshock-induced fighting behavior at 5 mg/kg, po after 30 to 90 mins. Type of series: functional. On the set-up: scale not given: the % may be the effect or the level left.
Series [6] concerns Rattus norvegicus. The series is described as follows: Analgesic activity in Sprague-Dawley rat assessed as increase in pain threshold at 20 mg/kg, po after 15 to 90 mins by tail flick test. The series is classed as functional. Background: In hot-plate and tail-flick tests a longer latency is read as antinociception.
Series [7] relates to Rattus norvegicus. The series is described as follows: Antipsychotic activity in rat assessed as reduction of methamphetamine-induced hyperactivity at 10 mg/kg, po administered prior to methamphetamine challenge relative to vehicle-treated control. The series is classed as functional. On the set-up: scale not given: the % may be the effect or the level left.
Series [8] concerns Rattus norvegicus. The series is described as follows: Antidiarrheal activity in Charles River rat assessed as inhibition of castor oil-induced diarrhea by measuring protected animals at 0.2 mg/kg, po administered for 5 days followed by 0.2 mg/kg, po on test day administered 1 hr prior to castor oil challenge measured after 1 hr relative to vehicle-treated control. Type of series: functional.

Series [9] deals with Rattus norvegicus. The series is described as follows: Antidiarrheal activity in Charles River rat assessed as inhibition of castor oil-induced diarrhea by measuring protected animals at 0.5 mg/kg, po administered for 2 days followed by 1 mg/kg, po on test day administered 1 hr prior to castor oil challenge measured after 1 hr relative to vehicle-treated control. Type of series: functional.

For series [10], the system named is Rattus norvegicus. The series can be described thus: Antihypertensive activity in spontaneously hypertensive rat model assessed as reduction in blood pressure at 0.3 mg/kg, po after 24 hrs. Set-up: scale not given: the % may be the effect or the level left. The series is classed as functional.
Series [11] concerns Rattus norvegicus. The series can be described thus: Antisecretory activity in Sprague-Dawley rat assessed as decrease in acid output at 50 mg/kg, po administered 30 mins prior to pylorus ligation measured after 4 hrs relative to control. Type of series: functional. Set-up: scale not given: the % may be the effect or the level left.
The test system of series [12] is Rattus norvegicus. The series can be described thus: Antisecretory activity in Sprague-Dawley rat assessed as decrease in pepsin concentration at 50 mg/kg, po administered 30 mins prior to pylorus ligation measured after 4 hrs relative to control. Set-up: scale not given: the % may be the effect or the level left. Type of series: functional.
For series [13], the system named is Rattus norvegicus. The series is described as follows: Antipsychotic activity in rat assessed as reduction of methamphetamine-induced hyperactivity at 2 mg/kg, po administered prior to methamphetamine challenge relative to vehicle-treated control. Set-up: scale not given: the % may be the effect or the level left. Type of series: functional.
A short description of series [14]: Acute toxicity in po dosed mouse. To be noted: in vivo. Type of series: organism-based.
Series [15] concerns Rattus norvegicus. The series can be described thus: Antihypertensive activity in spontaneously hypertensive rat model assessed as reduction in blood pressure at 1 mg/kg, po after 24 hrs. The series is classed as functional. On the set-up: scale not given: the % may be the effect or the level left.
Series [16] concerns Rattus norvegicus. The series can be described thus: Antipsychotic activity in rat assessed as reduction of methamphetamine-induced hyperactivity at 0.5 mg/kg, po administered prior to methamphetamine challenge relative to vehicle-treated control. The series is classed as functional. On the set-up: scale not given: the % may be the effect or the level left.
For series [17], the system named is Rattus norvegicus. The series can be described thus: Antianxiety activity in Long-Evans rat assessed as reduction in motor activity at 5 mg/kg, po after 2 hrs relative to vehicle-treated control. On the set-up: scale not given: the % may be the effect or the level left. The series is classed as functional.
Series [18] has as its system Rattus norvegicus. The series can be described thus: Antisecretory activity in Sprague-Dawley rat assessed as decrease in volume at 50 mg/kg, po administered 30 mins prior to pylorus ligation measured after 4 hrs relative to control. Type of series: functional. Set-up: scale not given: the % may be the effect or the level left.
Series [19] has as its system Rattus norvegicus. The series is described as follows: Antisecretory activity in Sprague-Dawley rat assessed as decrease in pepsin output at 50 mg/kg, po administered 30 mins prior to pylorus ligation measured after 4 hrs relative to control. Set-up: scale not given: the % may be the effect or the level left. Type of series: functional.
Series [20] relates to Rattus norvegicus. The series is described as follows: Antisecretory activity in Sprague-Dawley rat assessed as decrease in acidity at 50 mg/kg, po administered 30 mins prior to pylorus ligation measured after 4 hrs relative to control. Type of series: functional. Set-up: scale not given: the % may be the effect or the level left.
Series [21] deals with Rattus norvegicus. The series can be described thus: Antidiarrheal activity in Charles River rat assessed as inhibition of castor oil-induced diarrhea by measuring protected animals at 0.1 mg/kg, po administered 1 hr prior to castor oil challenge measured after 1 hr relative to vehicle-treated control. The series is classed as functional.
Series [22] deals with Canis familiaris. The series can be described thus: Antianxiety activity in po dosed dog assessed as ataxia administered as single dose measured up to 24 hrs. The series is classed as functional. Conditions: Canis lupus familiaris, read-out: MED.
Series [23] has as its system Rattus norvegicus. The series is described as follows: Antidiarrheal activity in Charles River rat assessed as inhibition of castor oil-induced diarrhea by measuring protected animals at 0.2 mg/kg, po administered 1 hr prior to castor oil challenge measured after 1 hr relative to vehicle-treated control. The series is classed as functional.
Series [24] relates to Rattus norvegicus. The series can be described thus: Antihypertensive activity in spontaneously hypertensive rat model assessed as reduction in blood pressure at 1 mg/kg, po after 3 hrs. Type of series: functional. Set-up: scale not given: the % may be the effect or the level left.
Series [25] deals with Rattus norvegicus. The series can be described thus: Antidiarrheal activity in Charles River rat assessed as inhibition of castor oil-induced diarrhea by measuring protected animals at 0.5 mg/kg, po administered for 2 days followed by 0.5 mg/kg, po on test day administered 1 hr prior to castor oil challenge measured after 1 hr relative to vehicle-treated control. The series is classed as functional.

Series [26] deals with Rattus norvegicus. The series is described as follows: Antidiarrheal activity in Charles River rat assessed as inhibition of castor oil-induced diarrhea by measuring protected animals at 0.05 mg/kg, po administered 1 hr prior to castor oil challenge measured after 1 hr relative to vehicle-treated control. Type of series: functional.
For series [27], the system named is Rattus norvegicus. The series is described as follows: Antidiarrheal activity in Charles River rat assessed as inhibition of castor oil-induced diarrhea by measuring protected animals at 0.5 mg/kg, po administered for 5 days followed by 0.5 mg/kg, po on test day administered 1 hr prior to castor oil challenge measured after 1 hr relative to vehicle-treated control. The series is classed as functional.

Series [28] has as its system Rattus norvegicus. The series is described as follows: Antihypertensive activity in spontaneously hypertensive rat model assessed as reduction in blood pressure at 0.3 mg/kg, po after 3 hrs. On the set-up: scale not given: the % may be the effect or the level left. Type of series: functional.

On to `CN(C)CCCN1c2ccccc2Sc2ccc(Cl)cc21` [CHLORPROMAZINE], for which the Activity is on record as 76% in series [1]; 11% in series [2]; 93% in series [4]; 79% in series [5]; 37% in series [6]; 83% in series [7]. In [3], the ED50 is 2.4 mg/kg.
`CCOC(=O)C1(c2ccccc2)CCN(CCC(C#N)(c2ccccc2)c2ccccc2)CC1` [DIPHENOXYLATE]: in [8], the inhibition in vivo at 0.2 mg/kg is 90%.
`CC1CCC2=C(C1)c1c(O)cc(C(C)C(C)CCc3ccc(F)cc3)cc1OC2(C)C` (stereo unspecified): the “inhibition (INH)” value in series [9] was found to be 0%. The Activity is recorded as 10% in series [10]; 53.1% in [11]; 20.8% in series [12]; 62% in series [13]; 89% in series [2]; 12% in [15]. Also, the Activity in series [16] is listed as 58%; in [17] it was 66%; in series [18], 45.6%; in series [5], 0%; in series [19] it was 56.4%; in [20], 13.4%. Further, the results for the Activity in [24] and in series [28] were 27% and 13%, respectively. Moreover, the ED50 in series [3] is 4.5 mg/kg. In addition, in [14], the LD50 is 750 mg/kg. For the same molecule, in series [21], the inhibition in vivo at 0.1 mg/kg came out at 60%. Further, the minimal effective dose in series [22] came to 1 mg/kg. In addition, the inhibition in vivo at 0.2 mg/kg in [23] stood at 90%. Moreover, the values for the inhibition in vivo at 0.5 mg/kg in series [25] and in series [27] were 0.5% and 0%, respectively. For the same molecule, the inhibition in vivo at 0.05 mg/kg in series [26] turned out to be 40%.
